Experimental data from ChEMBL document CHEMBL1201862, “PubChem BioAssay data set” (2004).
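Cells were grown in 96-well plates and exposed to each compound for 48 hours at five concentrations; endpoints were interpolated linearly between bracketing concentrations, or set to the highest concentration if not reached. GI50 marks 50% less growth.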 Activity calls are given as the source filed them. No stated cut-off is given here; in the data, active = GI50 up to about 1.1 µM and inactive = higher.

Columns and labels:
Test in all cases: DTP human tumour cell line panel, 48 h
A498 = system: A498
A549 = system: A549
ACHN = system: ACHN
COLO 205 = system: COLO 205
DMS-273 = system: DMS-273
DU-145 = system: DU-145
HCT-15 = system: HCT-15
HOP-62 = system: HOP-62
HT-29 = system: HT-29
IGROV-1 = system: IGROV-1
KM12 = system: KM12
M14 = system: M14
MCF7 = system: MCF7
MDA-MB-435 = system: MDA-MB-435
NCI-H522 = system: NCI-H522
NCI/ADR-RES = system: NCI/ADR-RES
OVCAR-8 = system: OVCAR-8
RXF 393 = system: RXF 393
SK-MEL-2 = system: SK-MEL-2
SN12C = system: SN12C

Row | Structure (SMILES) | GI50 (A498) | GI50 (A549) | GI50 (ACHN) | GI50 (COLO 205) | GI50 (DMS-273) | GI50 (DU-145) | GI50 (HCT-15) | GI50 (HOP-62) | GI50 (HT-29) | GI50 (IGROV-1) | GI50 (KM12) | GI50 (M14) | GI50 (MCF7) | GI50 (MDA-MB-435) | GI50 (NCI-H522) | GI50 (NCI/ADR-RES) | GI50 (OVCAR-8) | GI50 (RXF 393) | GI50 (SK-MEL-2) | GI50 (SN12C)
1 | C[N+](C)(C)CC(=O)N/N=C(\C(=O)NC1=C(Cl)C(=O)c2ccccc2C1=O)C(C#N)c1nc(-c2ccc([N+](=O)[O-])cc2)cs1 (centres undefined) | 16.9 µM (inactive) | 4.54 µM (inactive) | 10.6 µM (inactive) | 17.2 µM (inactive) | 9.02 µM (inactive) | 6.08 µM (inactive) | 5.36 µM | 12.7 µM (inactive) | 8.38 µM (inactive) | 6.71 µM (inactive) | 14.6 µM (inactive) | 3.15 µM (inactive) | 5.41 µM (inactive) | 1.87 µM (inactive) | 7.31 µM (inactive) | 11.7 µM (inactive) | 9.35 µM (inactive) | 11.2 µM (inactive) | 4.46 µM (inactive) | 9.42 µM (inactive)
2 | O=C1/C(=C/c2ccc3c(c2)OCO3)CCC1CN1CCOCC1 (centres undefined) | 14.8 µM (inactive) | 20.9 µM (inactive) | 10.7 µM (inactive) | 9.73 µM (inactive) | 8.79 µM (inactive) | 16 µM (inactive) | 2.94 µM | 16.3 µM (inactive) | 5.77 µM (inactive) | 16.1 µM (inactive) | 4.65 µM (inactive) | 4.22 µM (inactive) | 2.1 µM (inactive) | 14.3 µM (inactive) | 1.04 µM (active) |  | 7.64 µM (inactive) | 11.4 µM (inactive) | 12 µM (inactive) | 4.06 µM (inactive)
